# Key:
# [1] = molecular target: Carbonic anhydrase, alpha family (Thiomicrospira crunogena, UniProt Q31FD6)
# Description: Inhibition of recombinant Thiomicrospira crunogena XCL-2 carbonic anhydrase by stopped flow CO2 hydrase assay
# Carbonate dehydratase = molecular target: T1, Carbonate dehydratase (Sulfurihydrogenibium sp. (strain YO3AOP1), UniProt B2V8E3)
# T1 sequence (B2V8E3 whole entry): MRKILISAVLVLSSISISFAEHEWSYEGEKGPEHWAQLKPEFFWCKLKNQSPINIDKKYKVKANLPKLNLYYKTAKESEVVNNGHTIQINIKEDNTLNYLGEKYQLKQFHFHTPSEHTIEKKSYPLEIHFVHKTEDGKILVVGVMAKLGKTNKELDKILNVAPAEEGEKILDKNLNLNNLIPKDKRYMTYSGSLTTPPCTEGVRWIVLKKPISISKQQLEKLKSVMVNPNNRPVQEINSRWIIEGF
# Description: Inhibition of recombinant Sulfurihydrogenibium yellowstonense YO3AOP1 carbonic anhydrase by stopped flow CO2 hydrase assay
# Carbonic anhydrase, alpha family, sequence (Q31FD6 whole entry): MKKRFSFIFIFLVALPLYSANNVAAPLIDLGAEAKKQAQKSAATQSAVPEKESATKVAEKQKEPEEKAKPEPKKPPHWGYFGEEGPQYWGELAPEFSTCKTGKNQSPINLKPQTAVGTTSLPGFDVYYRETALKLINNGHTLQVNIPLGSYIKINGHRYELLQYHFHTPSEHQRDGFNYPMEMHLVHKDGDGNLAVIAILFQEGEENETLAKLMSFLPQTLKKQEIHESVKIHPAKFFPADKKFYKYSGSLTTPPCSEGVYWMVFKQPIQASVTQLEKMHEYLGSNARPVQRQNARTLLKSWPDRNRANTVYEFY
SMILES,Ki [1] [µM],Ki (Carbonate dehydratase) [µM]
NNc1ccccc1S(N)(=O)=O,0.0714,0.695
Nc1nnc(S(N)(=O)=O)s1,0.0279,0.137
Nc1ccc(S(=O)(=O)NCc2ccc(S(N)(=O)=O)cc2)cc1,0.454,0.0078
Nc1cc(Cl)c(S(N)(=O)=O)cc1S(N)(=O)=O,0.0544,
Nc1ccc(S(N)(=O)=O)cc1I,,0.0448
Nc1ccc(S(=O)(=O)Nc2nnc(S(N)(=O)=O)s2)cc1,0.0056,0.0055
NS(=O)(=O)c1nnc(-c2ccccc2Cl)s1,0.0025,0.0701
Nc1nccc(Nc2ccc(S(N)(=O)=O)cc2)n1,0.0923,0.0065
NS(=O)(=O)c1nc2ccc(O)cc2s1,0.0407,
Nc1ccc(S(N)(=O)=O)cc1Br,0.545,0.0757
Cn1nc(S(N)(=O)=O)sc1=N,0.0048,0.433
NS(=O)(=O)c1ccc(CCO)cc1,0.0315,0.162
Nc1ccc(S(N)(=O)=O)cc1F,0.0821,0.0683
NS(=O)(=O)c1ccc(CO)cc1,0.0212,0.493
NCCc1ccc(S(N)(=O)=O)cc1,0.488,
Nc1ccc(S(N)(=O)=O)cc1Cl,0.0797,0.0412
Nc1ccc(S(=O)(=O)NCCc2ccc(S(N)(=O)=O)cc2)cc1,0.402,0.0097
NNc1ccc(S(N)(=O)=O)cc1,0.0845,0.803
"Nc1cc(C(F)(F)F)c(S(N)(=O)=O)cc1S(N)(=O)=O [2,4-DISULFAMYLTRIFLUOROMETHYLANILINE]",0.0672,
NS(=O)(=O)c1nnc(NS(=O)(=O)c2ccccc2)s1 [BENZOLAMIDE],0.0027,
CCN[C@H]1CN(CCCOC)S(=O)(=O)c2sc(S(N)(=O)=O)cc21 [BRINZOLAMIDE],0.0042,0.0123
NS(=O)(=O)c1ccc(C(=O)O)cc1 [CARZENIDE],0.0852,0.0724
Cc1ccc(-c2cc(C(F)(F)F)nn2-c2ccc(S(N)(=O)=O)cc2)cc1 [CELECOXIB],0.981,0.0069
CCOc1ccc2nc(S(N)(=O)=O)sc2c1 [ETHOXZOLAMIDE],0.0041,
NCc1ccc(S(N)(=O)=O)cc1 [MAFENIDE],0.202,0.35
Cc1ccc(S(N)(=O)=O)cc1 [P-TOLUENESULFONAMIDE],0.244,0.848
O=C1NS(=O)(=O)c2ccccc21 [SACCHARIN],0.933,0.876
Nc1ccc(S(N)(=O)=O)cc1 [SULFANILAMIDE],0.628,0.652
CC1(C)O[C@@H]2[C@@H](CO[C@@]3(COS(N)(=O)=O)OC(C)(C)O[C@@H]23)O1 [TOPIRAMATE],0.769,0.0066

# Source: ChEMBL document CHEMBL3745715, “Sulfonamide inhibition studies of the α-carbonic anhydrase from the gammaproteobacterium Thiomicrospira crunogena XCL-2, TcruCA” (Bioorg Med Chem Lett, 2016)
